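Each compound was tested at five concentrations against cells in 96-well plates for 48 hours. GI50 marks 50% less growth.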 The source made the active and inactive calls. Cut-off read from the data, not from the text of the source: active = GI50 up to about 1.1 µM and inactive = higher.
Assays:
Test in all cases: NCI-60 cell line screen, 48 h
EKVX = system: EKVX
MDA-MB-435 = system: MDA-MB-435
PC-3 = system: PC-3
ACHN = system: ACHN
HOP-92 = system: HOP-92
IGROV-1 = system: IGROV-1
OVCAR-8 = system: OVCAR-8
DU-145 = system: DU-145
SF-295 = system: SF-295
NCI-H460 = system: NCI-H460
MDA-MB-231 = system: MDA-MB-231
SK-OV-3 = system: SK-OV-3
SW-620 = system: SW-620
KM12 = system: KM12
HCT-116 = system: HCT-116
HL-60 = system: HL-60
T47D = system: T47D
OVCAR-3 = system: OVCAR-3
SF-268 = system: SF-268
NCI-H23 = system: NCI-H23
NCI-H226 = system: NCI-H226
MDA-N = system: MDA-N
TK-10 = system: TK-10
OVCAR-4 = system: OVCAR-4
HCT-15 = system: HCT-15
HT-29 = system: HT-29
Hs-578T = system: Hs-578T
SK-MEL-5 = system: SK-MEL-5
786-0 = system: 786-0
M14 = system: M14
BT-549 = system: BT-549
UO-31 = system: UO-31
Malme-3M = system: Malme-3M
A549 = system: A549
A498 = system: A498
MOLT-4 = system: MOLT-4
MCF7 = system: MCF7
HOP-62 = system: HOP-62
SK-MEL-28 = system: SK-MEL-28
U-251 = system: U-251
UACC-257 = system: UACC-257
SN12C = system: SN12C
NCI/ADR-RES = system: NCI/ADR-RES
NCI-H522 = system: NCI-H522
OVCAR-5 = system: OVCAR-5
LOX IMVI = system: LOX IMVI
CAKI-1 = system: CAKI-1
K562 = system: K562
SNB-75 = system: SNB-75
CCRF-CEM = system: CCRF-CEM
UACC-62 = system: UACC-62
SF-539 = system: SF-539
HCC 2998 = system: HCC 2998
COLO 205 = system: COLO 205
RXF 393 = system: RXF 393
SR = system: SR
SNB-19 = system: SNB-19
RPMI-8226 = system: RPMI-8226
SK-MEL-2 = system: SK-MEL-2

For CCCCc1nc(C)oc1C(C)C, the GI50 (EKVX) was > 100 µM (inactive), the GI50 (MDA-MB-435) was > 100 µM (inactive) and the GI50 (PC-3) was > 100 µM (inactive). The GI50 (ACHN) was > 100 µM (inactive), the GI50 (HOP-92) was > 100 µM (inactive) and the GI50 (IGROV-1) was > 100 µM (inactive). The GI50 (OVCAR-8) was > 100 µM (inactive), the GI50 (DU-145) was > 100 µM (inactive) and the GI50 (SF-295) was > 100 µM (inactive). The GI50 (NCI-H460) was > 100 µM (inactive), the GI50 (MDA-MB-231) was > 100 µM (inactive) and the GI50 (SK-OV-3) was > 100 µM (inactive). For the same compound, the GI50 (SW-620) was > 100 µM (inactive), the GI50 (KM12) was > 100 µM (inactive) and the GI50 (HCT-116) was > 100 µM (inactive). The GI50 (HL-60) was > 100 µM (inactive), the GI50 (T47D) was > 100 µM (inactive) and the GI50 (OVCAR-3) was > 100 µM (inactive). The GI50 (SF-268) was > 100 µM (inactive), the GI50 (NCI-H23) was > 100 µM (inactive) and the GI50 (NCI-H226) was 40.7 µM (inactive). For the same compound, the GI50 (MDA-N) was > 100 µM (inactive), the GI50 (TK-10) was > 100 µM (inactive) and the GI50 (OVCAR-4) was > 100 µM (inactive). For the same compound, the GI50 (HCT-15) was greater than 100 µM, the GI50 (HT-29) was > 100 µM (inactive) and the GI50 (Hs-578T) was > 100 µM (inactive). The GI50 (SK-MEL-5) was > 100 µM (inactive), the GI50 (786-0) was > 100 µM (inactive) and the GI50 (M14) was > 100 µM (inactive). For the same compound, the GI50 (BT-549) was > 100 µM (inactive), the GI50 (UO-31) was > 100 µM (inactive) and the GI50 (Malme-3M) was > 100 µM (inactive). For the same compound, the GI50 (A549) was > 100 µM (inactive), the GI50 (A498) was > 100 µM (inactive) and the GI50 (MOLT-4) was > 100 µM (inactive). For the same compound, the GI50 (MCF7) was > 100 µM (inactive), the GI50 (HOP-62) was > 100 µM (inactive) and the GI50 (SK-MEL-28) was > 100 µM (inactive). The GI50 (U-251) was > 100 µM (inactive), the GI50 (UACC-257) was > 100 µM (inactive) and the GI50 (SN12C) was > 100 µM (inactive). For the same compound, the GI50 (NCI/ADR-RES) was > 100 µM (inactive), the GI50 (NCI-H522) was > 100 µM (inactive) and the GI50 (OVCAR-5) was > 100 µM (inactive). The GI50 (LOX IMVI) was > 100 µM (inactive), the GI50 (CAKI-1) was > 100 µM (inactive) and the GI50 (K562) was > 100 µM (inactive). The GI50 (SNB-75) was > 100 µM (inactive), the GI50 (CCRF-CEM) was > 100 µM (inactive) and the GI50 (UACC-62) was > 100 µM (inactive). The GI50 (SF-539) was > 100 µM (inactive), the GI50 (HCC 2998) was > 100 µM (inactive) and the GI50 (COLO 205) was > 100 µM (inactive). For the same compound, the GI50 (RXF 393) was > 100 µM (inactive).

For CCCCCCCCCCCCCCCC(=O)Nc1ccn(C2CC(OP(=O)(O)OCC3OC(n4cc(F)c(=O)[nH]c4=O)CC3OC(C)=O)C(CO)O2)c(=O)n1 (configuration not stated), the GI50 (EKVX) was > 61.2 µM (inactive), the GI50 (MDA-MB-435) was 34.7 µM (inactive) and the GI50 (PC-3) was 7.87 µM (inactive). The GI50 (ACHN) was 0.128 µM (active), the GI50 (SR) was 1 µM (active) and the GI50 (IGROV-1) was 23.9 µM (inactive). The GI50 (OVCAR-8) was 3.78 µM (inactive), the GI50 (SNB-19) was 2.73 µM (inactive) and the GI50 (DU-145) was 3.61 µM (inactive). The GI50 (SF-295) was 1.81 µM (inactive), the GI50 (NCI-H460) was 0.0664 µM (active) and the GI50 (MDA-MB-231) was > 43.4 µM (inactive). For the same compound, the GI50 (SK-OV-3) was > 21.2 µM (inactive), the GI50 (SW-620) was 22.9 µM (inactive) and the GI50 (KM12) was 15 µM (inactive). The GI50 (RPMI-8226) was 3.81 µM (inactive), the GI50 (HCT-116) was 3.84 µM (inactive) and the GI50 (HL-60) was 3.94 µM (inactive). For the same compound, the GI50 (T47D) was 20.8 µM (inactive), the GI50 (OVCAR-3) was > 53.2 µM (inactive) and the GI50 (SF-268) was 0.528 µM (active). The GI50 (NCI-H23) was 3.86 µM (inactive), the GI50 (NCI-H226) was 31.2 µM (inactive) and the GI50 (MDA-N) was 42.5 µM (inactive). For the same compound, the GI50 (TK-10) was > 64 µM (inactive), the GI50 (OVCAR-4) was 44.7 µM (inactive) and the GI50 (HCT-15) was 14.7 µM. The GI50 (HT-29) was 7.62 µM (inactive), the GI50 (Hs-578T) was 12.1 µM (inactive) and the GI50 (SK-MEL-5) was 11.5 µM (inactive). The GI50 (786-0) was 6.47 µM (inactive), the GI50 (M14) was 11.4 µM (inactive) and the GI50 (BT-549) was 3.18 µM (inactive). For the same compound, the GI50 (UO-31) was 0.565 µM (active), the GI50 (A549) was 0.836 µM (active) and the GI50 (A498) was > 35 µM (inactive). For the same compound, the GI50 (MOLT-4) was 7.55 µM (inactive), the GI50 (MCF7) was > 100 µM (inactive) and the GI50 (HOP-62) was 0.351 µM (active). The GI50 (SK-MEL-28) was 30.5 µM (inactive), the GI50 (U-251) was 15.7 µM (inactive) and the GI50 (UACC-257) was > 57.1 µM (inactive). For the same compound, the GI50 (SN12C) was 6.03 µM (inactive), the GI50 (NCI/ADR-RES) was 11.4 µM (inactive) and the GI50 (NCI-H522) was 9.04 µM (inactive). The GI50 (OVCAR-5) was > 41.8 µM (inactive), the GI50 (LOX IMVI) was 1.29 µM (inactive) and the GI50 (CAKI-1) was 1.56 µM (inactive). For the same compound, the GI50 (K562) was 13.3 µM (inactive), the GI50 (SNB-75) was 13.7 µM (inactive) and the GI50 (CCRF-CEM) was 3.18 µM (inactive). For the same compound, the GI50 (UACC-62) was 8.32 µM (inactive), the GI50 (SF-539) was 0.07 µM (active) and the GI50 (COLO 205) was 18.3 µM (inactive). The GI50 (SK-MEL-2) was > 45.1 µM (inactive) and the GI50 (RXF 393) was > 41 µM (inactive).

With Cc1nc(N)c(N2CCN(C#N)CC2)c(O)n1 the GI50 (EKVX) was > 100 µM (inactive), the GI50 (MDA-MB-435) was > 100 µM (inactive) and the GI50 (PC-3) was > 100 µM (inactive). For the same compound, the GI50 (ACHN) was > 100 µM (inactive), the GI50 (SR) was > 100 µM (inactive) and the GI50 (OVCAR-8) was > 100 µM (inactive). For the same compound, the GI50 (SNB-19) was > 100 µM (inactive), the GI50 (DU-145) was > 100 µM (inactive) and the GI50 (SF-295) was > 100 µM (inactive). The GI50 (NCI-H460) was > 100 µM (inactive), the GI50 (MDA-MB-231) was > 100 µM (inactive) and the GI50 (SW-620) was > 100 µM (inactive). For the same compound, the GI50 (KM12) was > 100 µM (inactive), the GI50 (RPMI-8226) was > 100 µM (inactive) and the GI50 (HCT-116) was > 100 µM (inactive). For the same compound, the GI50 (HL-60) was > 10 µM (inactive), the GI50 (T47D) was > 100 µM (inactive) and the GI50 (OVCAR-3) was 28.8 µM (inactive). The GI50 (SF-268) was > 100 µM (inactive), the GI50 (NCI-H23) was > 100 µM (inactive) and the GI50 (NCI-H226) was > 100 µM (inactive). For the same compound, the GI50 (MDA-N) was > 100 µM (inactive), the GI50 (TK-10) was > 100 µM (inactive) and the GI50 (HCT-15) was greater than 100 µM. For the same compound, the GI50 (HT-29) was > 100 µM (inactive), the GI50 (Hs-578T) was > 100 µM (inactive) and the GI50 (786-0) was > 100 µM (inactive). The GI50 (M14) was > 100 µM (inactive), the GI50 (BT-549) was > 100 µM (inactive) and the GI50 (UO-31) was > 100 µM (inactive). For the same compound, the GI50 (Malme-3M) was > 100 µM (inactive), the GI50 (A549) was > 100 µM (inactive) and the GI50 (A498) was > 100 µM (inactive). The GI50 (MOLT-4) was > 100 µM (inactive), the GI50 (MCF7) was > 100 µM (inactive) and the GI50 (HOP-62) was > 100 µM (inactive). For the same compound, the GI50 (SK-MEL-28) was > 100 µM (inactive), the GI50 (U-251) was > 100 µM (inactive) and the GI50 (UACC-257) was > 100 µM (inactive). The GI50 (SN12C) was > 100 µM (inactive), the GI50 (NCI/ADR-RES) was > 100 µM (inactive) and the GI50 (NCI-H522) was > 100 µM (inactive). For the same compound, the GI50 (OVCAR-5) was > 100 µM (inactive), the GI50 (LOX IMVI) was > 100 µM (inactive) and the GI50 (K562) was > 100 µM (inactive). The GI50 (SNB-75) was > 100 µM (inactive), the GI50 (CCRF-CEM) was > 100 µM (inactive) and the GI50 (SF-539) was > 100 µM (inactive). For the same compound, the GI50 (HCC 2998) was > 100 µM (inactive), the GI50 (COLO 205) was > 100 µM (inactive) and the GI50 (SK-MEL-2) was > 100 µM (inactive).
